# Measured values as given in patent US5686426A, “Dicarboxymethylated glycolipid derivatives as cell adhesion inhibitors” (Bristol-Myers Squibb Company, priority 1994, dated 1997).
# pIC50: −log10 of the molar value.
# Test system: HL-60 cells / activated platelets (P-selectin)
# Test: HL-60 Platelet Cell Adhesion Assay
# Assay type: cell-based
# Conditions: HL-60 cell adhesion to thrombin-activated human platelets
# Procedure: HL-60 cells, obtained from American Type Culture Collection, were cultured in RPMI 1640 medium (GIBCO) supplemented with 20% fetal calf serum (Sigma) and 50 μg/ml gentamicin (GIBCO). Cells in log phase growth were harvested, washed and resuspended in Tyrodes buffer containing 5 mM HEPES and 0.2% bovine serum albumin and were fixed with 1% buffered formalin.
# Blood from normal human donors was anticoagulated with citrate, layered over 1-Step Platelets (Accurate Chemical Co.), and centrifuged at 350 g for 20 minutes at room temperature. The platelet band was collected, diluted in 2 volumes of Tyrode's Buffer with 5 mM HEPES, 10 mM EDTA, and 0.2% BSA (pH 7.4) (THEB) and centrifuged at 600 g for 10 minutes. The platelet pellet was resuspended in THEB and incubated at room temperature for 1 hour. Calcein-acetoxy methylester (Calcein-Am, Molecular Probes) was added to the platelets at a final concentration of 10 μM and incubated for 10 minutes at 37° C. to label the platelets. Without washing, the platelets were counted on a Coulter counter model ZM, and the concentration was adjusted to 1×10^7 /ml. The platelets were activated with 2 U/ml of human thrombin for 10 minutes in Tyrode's containing 2 mM CaCl2, 5 mM HEPES, and 0.2% BSA (pH 7.4) (THB) at 37° and immediately fixed with 1% buffered formalin for 1 to 2 hours at room temperature. A small aliquot of labeled platelets was removed before activation and designated as non-activated.
# Both platelets and HL-60 were washed in a ≥5 fold excess volume of Hanks Balanced Salt Solution (HBSS), resuspended in THB and counted. Cell concentrations were adjusted to 2×10^7 /ml for platelets and 4×10^6 /ml for HL-60, this ratio determined to be optimum for platelet: HL-60 cell adhesion. Compounds were incubated with 50 μl of platelets for 30 minutes at room temperature before addition of 50 μl of HL-60. This ratio of 5:1 platelets to HL-60 was incubated for 30 minutes at room temperature before addition of 0.2 ml of THB to increase the volume so the samples could be analyzed on a FACScan cytometer (Becton Dickinson). Non-activated platelets, and activated platelets with 10 mM EDTA were included as controls. Data were collected within a region set for the forward scatter channel corresponding to HL-60 size events.
# The percent HL-60 cells which contained bound platelets was determined for each test condition. The inhibition of binding was determined by comparison to standards which were treated with vehicle alone (representing 0% inhibition) and standards whose specific binding had been blocked by the use of EDTA (representing 100% inhibition), by the following formula: [formula] where x=HL-60 cells containing bound platelets in the presence of the compound;
# b=HL-60 cells containing bound platelets in the presence of EDTA;
# a=HL-60 cells containing bound platelets in presence of compound vehicle;
# z=% inhibition of platelet: HL-60 cell adhesion
row,pIC50,Compound
1,4.49,"CCCCCCCCCCCCC/C=C/[C@@H](OC(=O)c1ccccc1)[C@H](CO[C@H]1O[C@H](COCC(=O)O)[C@H](OCC(=O)O)[C@H](OC(=O)c2ccccc2)[C@H]1OC(=O)c1ccccc1)NC(=O)CCCCCCCCCCCCCCC [Example 2, (2S,3R,4E)-3-Benzoyloxy-2-hexadecanoylamino-1-[2,3-di-O-benzoyl-4,6-di-O-carboxymethyl-α-D-galactopyranosyloxy]-4-octadecene]"
2,< 4.00,"CCCCCC/C=C/[C@@H](OC(=O)c1ccccc1)[C@H](CO[C@H]1O[C@H](COCC(=O)O)[C@H](OCC(=O)O)[C@H](OC(=O)c2ccccc2)[C@H]1OC(=O)c1ccccc1)NC(=O)CCCCCCCCC(=O)OC [Example 8, (2S,3R,4E)-3-Benzoyloxy-2-(9-methoxycarbonyl-nonanoylamino)-1-(2,3-di-O-benzoyl-4,6-di-O-carboxymethyl-α-D-galactopyranosyloxy)-4-undecene]"
3,4.70,"CCCCCCCCCCCCC/C=C/[C@@H](OC(=O)c1ccccc1)[C@H](CO[C@H]1O[C@H](COCC(=O)O)[C@H](OCC(=O)O)[C@H](O)[C@H]1OC(=O)c1ccccc1)NC(=O)CCCCCCCCCCCCCCC [Example 14, (2S,3R,4E)-3-Benzoyloxy-2-hexadecanoylamino-1-[2-O-benzoyl-4,6-di-O-carboxymethyl-α-D-galactopyranosyloxy]-4-octadecene]"
4,5.00,"CCCCCCCCCCCCC/C=C/[C@@H](OC(=O)c1ccccc1)[C@H](CO[C@@H]1O[C@H](COCC(=O)O)[C@H](OCC(=O)O)[C@H](OC(=O)c2ccccc2)[C@H]1OC(=O)c1ccccc1)NC(=O)CCCCCCCCCCCCCCC [Example 16, (2S,3R,4E)-2-Hexadecanoylamino-3-benzoyloxy-1-(4,6-di-O-carboxymethyl-2,3-di-O-benzoyl-β-D-galactopyranoside)-4-octadecene]"
5,5.15,"CCCCCCCCCCCCC/C=C/[C@@H](OC(=O)c1ccccc1)[C@H](CO[C@@H]1O[C@H](COCC(=O)O)[C@H](OCC(=O)O)[C@H](OC(=O)c2ccccc2)[C@H]1O)NC(=O)CCCCCCCCCCCCCCC [Example 18, (2S,3R,4E)-3-Benzoyloxy-2-hexadecanoylamino-1-[3-O-benzoyl-4,6-di-O-carboxymethyl-β-D-galactopyranosyloxy]-4-octadecene]"
